Results on 23 compounds are retold here after ChEMBL document CHEMBL1157801, “Discovery of an in vitro and in vivo potent resorcylic lactone analog of LL-Z1640-2 as anti-inflammatory lead, II” (Bioorg Med Chem Lett, 2010).

Assay [1] relates to U-937. Briefly: Inhibition of PALP-fussed TNFalpha production in human U937 cells. Type of assay: functional, cell-based.
The test system of assay [2] is U-937. Briefly: Inhibition of PALP-fussed actin production in human U937 cells. Type of assay: functional, cell-based.
The subject of assay [3] is Mus musculus. Briefly: Antiinflammatory activity in iv dosed mouse assessed as inhibition of LPS-stimulated TNFalpha production. Type of assay: functional.

Structures are written as SMILES. Active and inactive are the calls of the source. The rule behind the calls is not given here.

On to `CCOc1cc(O)c2c(c1)/C=C/C[C@H](O)[C@H](O)C(=O)/C=C\[C@@H](C)[C@H](C)OC2=O`, for which the concentration for half-maximal inhibition (IC50) in assay [1] is 100 nM; in assay [2], greater than 10000 nM. Besides, in assay [3], the median effective dose (ED50) was determined as 12 mg/kg.

As for `CC(=O)NCCOc1cc(O)c2c(c1)/C=C/C[C@H](O)[C@H](O)C(=O)/C=C\[C@@H](C)[C@H](C)OC2=O`, the IC50 in assay [1] is 65 nM; in assay [2], greater than 10000 nM.

`COc1cc(O)c2c(c1)/C=C/C[C@H](O)[C@H](O)C(=O)/C=C\C[C@H](C)OC2=O`: in assay [3], the ED50 entry was “inactive”.

For the compound `CCCOc1cc(O)c2c(c1)/C=C/C[C@H](O)[C@H](O)C(=O)/C=C\[C@@H](C)[C@H](C)OC2=O`, the results for the 50% inhibitory concentration (IC50) in assay [1] and in assay [2] were 249 nM and greater than 10000 nM, respectively.

For the compound `C[C@@H]1/C=C\C(=O)[C@@H](O)[C@@H](O)C/C=C/c2cc(O)cc(O)c2C(=O)O[C@H]1C`, the IC50 in assay [1] is 515 nM; in assay [2] it was greater than 10000 nM.

Regarding `COc1cc(O)c2c(c1Br)/C=C/C[C@H](O)[C@H](O)C(=O)/C=C\[C@@H](C)[C@H](C)OC2=O`, the results for the IC50 in assay [1] and in assay [2] were 804 nM and greater than 10000 nM, respectively.

In the case of `C[C@@H]1/C=C\C(=O)[C@@H](O)[C@@H](O)C/C=C/c2cc(OCCn3ccnn3)cc(O)c2C(=O)O[C@H]1C`, the half-inhibitory concentration (IC50) in assay [1] was 43 nM; in assay [2], greater than 10000 nM.

For `C[C@@H]1/C=C\C(=O)[C@@H](O)[C@@H](O)C/C=C/c2cc(OCCCS(C)(=O)=O)cc(O)c2C(=O)O[C@H]1C`, the figures for the 50% inhibitory concentration (IC50) in assay [1] and in assay [2] were 32 nM and greater than 10000 nM, respectively. For the same compound, in assay [3], the 50% effective dose (ED50) was 9.8 mg/kg.

On to `C[C@@H]1/C=C\C(=O)[C@@H](O)[C@@H](O)C/C=C/c2cc(OCCn3ccnc3)cc(O)c2C(=O)O[C@H]1C`, for which the IC50 is 15 nM in assay [1] and greater than 10000 nM in assay [2]. Besides, in assay [3], the median effective dose (ED50) was determined as 6.5 mg/kg.

Take `COc1cc(O)c2c(c1)NC(=O)C[C@H](O)[C@H](O)C(=O)/C=C\[C@@H](C)[C@H](C)OC2=O`: the half-inhibitory concentration (IC50) in assay [1] is 293 nM; in assay [2] it was greater than 10000 nM.

Take `CC(=O)NCC(=O)COc1cc(O)c2c(c1)/C=C/C[C@H](O)[C@H](O)C(=O)/C=C\[C@@H](C)[C@H](C)OC2=O`: the figures for the 50% inhibitory concentration (IC50) in assay [1] and in assay [2] were 31 nM and greater than 10000 nM, respectively.

Take `C[C@@H]1/C=C\C(=O)[C@@H](O)[C@@H](O)C/C=C/c2cc(OCCN3CCOCC3)cc(O)c2C(=O)O[C@H]1C`: the concentration for half-maximal inhibition (IC50) in assay [1] is 59 nM; in assay [2], greater than 10000 nM.

For the compound `C[C@@H]1/C=C\C(=O)[C@@H](O)[C@@H](O)C/C=C/c2cc(OC(F)F)cc(O)c2C(=O)O[C@H]1C`, the IC50 was 615 nM in assay [1] and greater than 10000 nM in assay [2].

Regarding `C[C@@H]1/C=C\C(=O)[C@@H](O)[C@@H](O)C/C=C/c2cc(OCc3ccc(Cl)c(Cl)c3)cc(O)c2C(=O)O[C@H]1C`, the IC50 in assay [1] was 752 nM; in assay [2], greater than 10000 nM.

With `C[C@@H]1/C=C\C(=O)[C@@H](O)[C@@H](O)C/C=C/c2cc(OCc3ccccc3)cc(O)c2C(=O)O[C@H]1C`, the IC50 is 319 nM in assay [1] and greater than 10000 nM in assay [2].

For `COc1ccc(COc2cc(O)c3c(c2)/C=C/C[C@H](O)[C@H](O)C(=O)/C=C\[C@@H](C)[C@H](C)OC3=O)cc1`, the values for the half-inhibitory concentration (IC50) in assay [1] and in assay [2] were 168 nM and greater than 10000 nM, respectively.

Take `C[C@@H]1/C=C\C(=O)[C@@H](O)[C@@H](O)C/C=C/c2cc(OCCNc3ccccn3)cc(O)c2C(=O)O[C@H]1C`: the IC50 in assay [1] is 113 nM; in assay [2], greater than 10000 nM.

Turning to `COc1cc(O)c2c(c1)OCC[C@H](O)[C@H](O)C(=O)/C=C\[C@@H](C)[C@H](C)OC2=O`, the results for the half-inhibitory concentration (IC50) in assay [1] and in assay [2] were 1680 nM and greater than 10000 nM, respectively.

Turning to `C[C@@H]1/C=C\C(=O)[C@@H](O)[C@@H](O)C/C=C/c2cc(OCC(O)CO)cc(O)c2C(=O)O[C@H]1C` (some centres undefined), the half-inhibitory concentration (IC50) in assay [1] is 383 nM; in assay [2], greater than 10000 nM.

Consider `CC(C)Oc1cc(O)c2c(c1)/C=C/C[C@H](O)[C@H](O)C(=O)/C=C\[C@@H](C)[C@H](C)OC2=O`, for which the IC50 was 687 nM in assay [1] and greater than 10000 nM in assay [2].

Take `C[C@@H]1/C=C\C(=O)[C@@H](O)[C@@H](O)C/C=C/c2cc(OCCN(C)C)cc(O)c2C(=O)O[C@H]1C`: the figures for the concentration for half-maximal inhibition (IC50) in assay [1] and in assay [2] were 597 nM and greater than 10000 nM, respectively.

Regarding `COc1cc(O)c2c(c1)/C=C/C[C@H](O)[C@H](O)C(=O)/C=C\[C@@H](C)[C@H](C)OC2=O`, the IC50 in assay [1] was 136 nM; in assay [2], greater than 10000 nM. Besides, the 50% effective dose (ED50) in assay [3] worked out at 13.2 mg/kg.

As to `CCCCOc1cc(O)c2c(c1)/C=C/C[C@H](O)[C@H](O)C(=O)/C=C\[C@@H](C)[C@H](C)OC2=O`, the concentration for half-maximal inhibition (IC50) is 325 nM in assay [1] and greater than 10000 nM in assay [2].
